Source: US20140107109A1, “AMINO-DIHYDROTHIAZINE AND AMINO-DIOXIDO DIHYDROTHIAZINE COMPOUNDS AS BETA-SECRETASE ANTAGONISTS AND METHODS OF USE” (Amgen Inc., priority 2012, published 2014)

Key:
[1] = tested on: Aβ40 in conditioned medium of cells stably expressing Amyloid Precursor Protein (APP); assay: In vitro BACE cell-based assay (HEK cell assay), Aβ40 sandwich ELISA; conditions: Homo sapiens, HEK293; average IC50, HEK cell assay
Method in brief: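 APP-stably expressing cells (40K/well, grown 24 h in DMEM/10% FBS) were treated 24 h with compounds in 10-point dose response starting at 100 μM or 10 μM, 0.1% DMSO final. Secreted Aβ40 was measured by sandwich ELISA (pAb40 capture, biotinylated 6E10 detection, europium time-resolved fluorescence); IC50 from percent inhibition.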

Cathepsin D (Cat D) = target: T1, Cathepsin D (Cat D) (Homo sapiens, UniProt P07339); assay: In vitro enzymatic Cathepsin D (Cat D) FRET assay; assay type: biochemical; conditions: read-out: CatD IC50
T1 construct: Recombinant Cat D was expressed in CHO cells; made in house; host or cells: CHO cells
T1 sequence (P07339 65-412, species assumed): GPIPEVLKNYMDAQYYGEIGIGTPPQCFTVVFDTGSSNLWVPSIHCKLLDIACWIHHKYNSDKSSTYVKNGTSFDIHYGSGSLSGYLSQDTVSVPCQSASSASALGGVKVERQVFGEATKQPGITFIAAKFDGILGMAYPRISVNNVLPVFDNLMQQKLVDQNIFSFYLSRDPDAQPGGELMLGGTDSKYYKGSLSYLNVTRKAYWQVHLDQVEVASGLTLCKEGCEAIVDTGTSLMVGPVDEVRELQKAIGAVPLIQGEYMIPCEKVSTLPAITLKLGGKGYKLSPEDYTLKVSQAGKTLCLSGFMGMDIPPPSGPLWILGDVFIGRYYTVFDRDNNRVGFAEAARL
Method in brief: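 Recombinant Cat D expressed in CHO cells, used at 9 nM and pre-incubated one hour with serially diluted inhibitor in DMSO. Peptide substrate carries a fluorophore and quencher flanking the cleavage site; reaction stopped with Tris buffer raising pH to neutrality, then fluorescence read.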

[2] = target: Beta Secretase enzyme (BACE1) (Homo sapiens, UniProt P56817); assay: In vitro enzymatic BACE FRET assay; assay type: biochemical; conditions: average IC50, enzyme assay; read-out: BACE1 FRET assay IC50
Chain of Beta Secretase enzyme (BACE1) (P56817 46-501): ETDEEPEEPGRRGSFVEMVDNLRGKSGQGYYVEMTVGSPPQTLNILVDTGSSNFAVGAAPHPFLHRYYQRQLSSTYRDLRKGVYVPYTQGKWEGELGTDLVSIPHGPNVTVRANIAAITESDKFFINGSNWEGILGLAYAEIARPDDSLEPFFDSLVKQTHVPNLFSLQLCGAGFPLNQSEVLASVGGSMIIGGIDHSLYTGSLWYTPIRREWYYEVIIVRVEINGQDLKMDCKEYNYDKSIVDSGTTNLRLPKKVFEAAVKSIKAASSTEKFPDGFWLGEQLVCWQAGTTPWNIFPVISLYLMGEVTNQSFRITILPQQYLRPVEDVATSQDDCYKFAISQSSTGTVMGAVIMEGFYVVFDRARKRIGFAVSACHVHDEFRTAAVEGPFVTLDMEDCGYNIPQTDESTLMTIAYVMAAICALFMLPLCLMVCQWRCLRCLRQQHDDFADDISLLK
Method in brief: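 BACE1 cleavage of a 50 nM fluorophore/quencher peptide FRET substrate ran for one hour in 0.05 M acetate pH 4.2, 10% DMSO, 100 uM genapol. Tris buffer raised pH to neutrality to stop the reaction before fluorescence was read (excitation 488 nm, […]).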

Compound | IC50 [1] [µM] | IC50 (Cathepsin D (Cat D)) [µM] | IC50 [2] [µM]
Cc1cc(C(F)(F)F)cc(Oc2ccc(F)c([C@]3(C)CS(=O)(=O)C(C)(C)C(N)=N3)c2)n1 [Example 298, (5R)-5-(2-fluoro-5-((6-methyl-4-(trifluoromethyl)-2-pyridinyl)oxy)phenyl)-2,2,5-trimethyl-5,6-dihydro-2H-1,4-thiazin-3-amine 1,1-dioxide] | 0.737 | 547 | 0.106
CC1(C)C(N)=N[C@](C)(c2cc(Oc3ncc(Cl)cc3Cl)ccc2F)CS1(=O)=O [Example 299, (5R)-5-(5-((3,5-dichloro-2-pyridinyl)oxy)-2-fluorophenyl)-2,2,5-trimethyl-5,6-dihydro-2H-1,4-thiazin-3-amine 1,1-dioxide] | 0.796 | 82.4 | 0.174
CC1(C)C(N)=N[C@](C)(c2cc(Oc3ncc(C(N)=O)cc3F)ccc2F)CS1(=O)=O [Example 300, 6-(3-((3R)-5-amino-3,6,6-trimethyl 1,1-dioxido-3,6-dihydro-2H-1,4-thiazin-3-yl)-4-fluorophenoxy)-5-fluoro-3-pyridinecarboxamide] | 1.18 | 717 | 0.897
Cc1nc2c(Oc3ccc(F)c([C@]4(C)CS(=O)(=O)C(C)(C)C(N)=N4)c3)nccc2s1 [Example 302, (5R)-5-(2-fluoro-5-((2-methyl[1,3]thiazolo[4,5-c]pyridin-4-yl)oxy)phenyl)-2,2,5-trimethyl-5,6-dihydro-2H-1,4-thiazin-3-amine 1,1-dioxide] | 2.87 | 241 | 3.49
COc1cnc2c(Oc3ccc(F)c([C@]4(C)CS(=O)(=O)C(C)(C)C(N)=N4)c3)nccc2n1 [Example 303, (5R)-5-(2-fluoro-5-((2-methoxypyrido[3,4-b]pyrazin-5-yl)oxy)phenyl)-2,2,5-trimethyl-5,6-dihydro-2H-1,4-thiazin-3-amine 1,1-dioxide] | 2.54 | 1000 | 1.22
CC1(C)C(N)=N[C@](C)(c2cc(Oc3nccc4cc(Cl)cnc34)ccc2F)CS1(=O)=O [Example 304, (5R)-5-(5-((3-chloro-1,7-naphthyridin-8-yl)oxy)-2-fluorophenyl)-2,2,5-trimethyl-5,6-dihydro-2H-1,4-thiazin-3-amine 1,1-dioxide] | 0.198 | 282 | 0.127
CC1(C)C(N)=N[C@](C)(c2cc(Oc3ncccc3C#N)ccc2F)CS1(=O)=O [Example 306, 2-(3-((3R)-5-amino-3,6,6-trimethyl-1,1-dioxido-3,6-dihydro-2H-1,4-thiazin-3-yl)-4-fluorophenoxy)-3-pyridinecarbonitrile] | 0.241 | 218 | 0.256
CC1(C)C(N)=N[C@](C)(c2cc(Oc3nccc(C#N)c3Cl)ccc2F)CS1(=O)=O [Example 307, 2-(3-((3R)-5-amino-3,6,6-trimethyl-1,1-dioxido-3,6-dihydro-2H-1,4-thiazin-3-yl)-4-fluorophenoxy)-3-chloro-4-pyridinecarbonitrile] | 0.258 | 298 | 0.168
CC1(C)C(N)=N[C@](C)(c2cc(Oc3c(C#N)ccnc3Cl)ccc2F)CS1(=O)=O [Example 308, 3-(3-((3R)-5-amino-3,6,6-trimethyl-1,1-dioxido-3,6-dihydro-2H-1,4-thiazin-3-yl)-4-fluorophenoxy)-2-chloro-4-pyridinecarbonitrile] | 3.27 | 224 | 4.16
COc1ccnc(Oc2ccc(F)c([C@]3(C)CS(=O)(=O)C(C)(C)C(N)=N3)c2)n1 [Example 309, (5R)-5-(2-fluoro-5-((4-methoxy-2-pyrimidinyl)oxy)phenyl)-2,2,5-trimethyl-5,6-dihydro-2H-1,4-thiazin-3-amine 1,1-dioxide] | 0.0751 | 274 | 0.101
Cc1ccnc(Oc2ccc(F)c([C@]3(C)CS(=O)(=O)C(C)(C)C(N)=N3)c2)c1C#N [Example 310, 2-(3-((3R)-5-amino-3,6,6-trimethyl-1,1-dioxido-3,6-dihydro-2H-1,4-thiazin-3-yl)-4-fluorophenoxy)-4-methyl-3-pyridinecarbonitrile] | 0.931 | 444 | 1.34
Cc1c(C(F)(F)F)ccnc1Oc1ccc(F)c([C@]2(C)CS(=O)(=O)C(C)(C)C(N)=N2)c1 [Example 311, (5R)-5-(2-fluoro-5-((3-methyl-4-(trifluoromethyl)-2-pyridinyl)oxy)phenyl)-2,2,5-trimethyl-5,6-dihydro-2H-1,4-thiazin-3-amine 1,1-dioxide] | 2.39 | 401 | 2.57
CC1(C)C(N)=N[C@](C)(c2cc(Oc3nccc(C(F)(F)F)c3C#N)ccc2F)CS1(=O)=O [Example 312, 2-(3-((3R)-5-amino-3,6,6-trimethyl-1,1-dioxido-3,6-dihydro-2H-1,4-thiazin-3-yl)-4-fluorophenoxy)-4-(trifluoromethyl)-3-pyridinecarbonitrile] | 1.59 | 771 | 2.89
CC1(C)C(N)=N[C@](C)(c2cc(NC(=O)c3cnc(C(F)F)cn3)ccc2F)CS1(=O)=O [Example 313, N-(3-((3R)-5-amino-3,6,6-trimethyl-1,1-dioxido-3,6-dihydro-2H-1,4-thiazin-3-yl)-4-fluorophenyl)-5-(difluoromethyl)-2-pyrazinecarboxamide] | 0.0063 | 887 | 0.00292
CC1(C)C(N)=N[C@](C)(c2cc(NC(=O)c3cnc(OCC(F)F)cn3)ccc2F)CS1(=O)=O [Example 314, N-(3-((3R)-5-amino-3,6,6-trimethyl-1,1-dioxido-3,6-dihydro-2H-1,4-thiazin-3-yl)-4-fluorophenyl)-5-(2,2-difluoroethoxy)-2-pyrazinecarboxamide] | 0.005 | 504 | 0.00058
CC1(C)C(N)=N[C@](C)(c2cc(NC(=O)c3ccc4ccccc4n3)ccc2F)CS1(=O)=O [Example 315, N-(3-((3R)-5-amino-3,6,6-trimethyl-1,1-dioxido-3,6-dihydro-2H-1,4-thiazin-3-yl)-4-fluorophenyl)-2-quinolinecarboxamide] | 0.0253 | 253 | 0.0376
CC1(C)C(N)=N[C@](C)(c2cc(NC(=O)c3cnc4ccccc4n3)ccc2F)CS1(=O)=O [Example 316, N-(3-((3R)-5-amino-3,6,6-trimethyl-1,1-dioxido-3,6-dihydro-2H-1,4-thiazin-3-yl)-4-fluorophenyl)-2-quinoxalinecarboxamide] | 0.018 | 36.6 | 0.0412
CC#CCOc1cnc(C(=O)Nc2ccc(F)c([C@]3(C)CS(=O)(=O)[C@@](C)(F)C(N)=N3)c2)cn1 [Example 317, N-(3-((3R,6R)-5-amino-6-fluoro-3,6-dimethyl-1,1-dioxido-3,6-dihydro-2H-1,4-thiazin-3-yl)-4-fluorophenyl)-5-(2-butyn-1-yloxy)-2-pyrazinecarboxamide] | 0.0036 | > 133 | 0.00021
COc1ccc(C(=O)Nc2ccc(F)c([C@]3(C)CS(=O)(=O)[C@@](C)(F)C(N)=N3)c2)nc1 [Example 318, N-(3-((3R,6R)-5-amino-6-fluoro-3,6-dimethyl-1,1-dioxido-3,6-dihydro-2H-1,4-thiazin-3-yl)-4-fluorophenyl)-5-methoxy-2-pyridinecarboxamide] | 0.0688 | > 400 | 0.0018
C[C@]1(F)C(N)=N[C@](C)(c2cc(NC(=O)c3ccc(C(F)F)cn3)ccc2F)CS1(=O)=O [Example 319, N-(3-((3R,6R)-5-amino-6-fluoro-3,6-dimethyl-1,1-dioxido-3,6-dihydro-2H-1,4-thiazin-3-yl)-4-fluorophenyl)-5-(difluoromethyl)-2-pyridinecarboxamide] | 0.07 | > 400 | 0.00162
C[C@]1(F)C(N)=N[C@](C)(c2cc(NC(=O)c3ncc(Cl)cc3F)ccc2F)CS1(=O)=O [Example 320, N-(3-((3R,6R)-5-amino-6-fluoro-3,6-dimethyl-1,1-dioxido-3,6-dihydro-2H-1,4-thiazin-3-yl)-4-fluorophenyl)-5-chloro-3-fluoro-2-pyridinecarboxamide] | 0.0789 | > 400 | 0.0008
Cc1cc(OC(F)F)cnc1C(=O)Nc1ccc(F)c([C@]2(C)CS(=O)(=O)[C@@](C)(F)C(N)=N2)c1 [Example 321, N-(3-((3R,6R)-5-amino-6-fluoro-3,6-dimethyl-1,1-dioxido-3,6-dihydro-2H-1,4-thiazin-3-yl)-4-fluorophenyl)-5-(difluoromethoxy)-3-methyl-2-pyridinecarboxamide] | 0.0449 | 387 | 0.00072
C[C@]1(F)C(N)=N[C@](C)(c2cc(NC(=O)c3ccc(F)cn3)ccc2F)CS1(=O)=O [Example 322, N-(3-((3R,6R)-5-amino-6-fluoro-3,6-dimethyl-1,1-dioxido-3,6-dihydro-2H-1,4-thiazin-3-yl)-4-fluorophenyl)-5-fluoro-2-pyridinecarboxamide] | 0.134 | 1220 | 0.00195
